Where a name gives a salt, the structure may show the parent alone.
Target: interaction between p53 and MDM2 proteins (recombinant GST-tagged MDM2 / biotinylated p53 peptide) (Homo sapiens, UniProt Q00987)
Assay: HTRF (homogeneous time-resolved fluorescence) assay of p53-MDM2 interaction inhibition
Assay type: binding
Conditions: bsa: 0.02%
Protocol: The ability of the compounds to inhibit the interaction between p53 and MDM2 proteins was measured by an HTRF (homogeneous time-resolved fluorescence) assay in which recombinant GST-tagged MDM2 binds to a peptide that resembles the MDM2-interacting region of p53. Binding of GST-MDM2 protein and p53-peptide (biotinylated on its N-terminal end) is registered by the FRET (fluorescence resonance energy transfer) between Europium (Eu)-labeled anti-GST antibody and streptavidin-conjugated Allophycocyanin (APC).
[…] Add 10 uL diluted compounds (1:5 dilution in reaction buffer) to each well, mix by shaking Add 20 uL biotinylated p53 peptide (180 nM working solution) in reaction buffer to each well and mix on shaker. Incubate at 37° C. for 1 h. Add 20 uL streptavidin-APC and Eu-anti-GST antibody mixture (6 nM Eu-anti-GST and 60 nM streptavidin-APC working solution) in TBS buffer with 0.2% BSA, shake at room temperature for 30 minutes and read using a TRF-capable plate reader at 665 and 615 nm (Victor 5; Perkin Elmer Wallac). If not specified, the reagents were purchased from Sigma Chemical Co.

Sequence of interaction between p53 and MDM2 proteins (recombinant GST-tagged MDM2 / biotinylated p53 peptide) (Q00987 whole entry): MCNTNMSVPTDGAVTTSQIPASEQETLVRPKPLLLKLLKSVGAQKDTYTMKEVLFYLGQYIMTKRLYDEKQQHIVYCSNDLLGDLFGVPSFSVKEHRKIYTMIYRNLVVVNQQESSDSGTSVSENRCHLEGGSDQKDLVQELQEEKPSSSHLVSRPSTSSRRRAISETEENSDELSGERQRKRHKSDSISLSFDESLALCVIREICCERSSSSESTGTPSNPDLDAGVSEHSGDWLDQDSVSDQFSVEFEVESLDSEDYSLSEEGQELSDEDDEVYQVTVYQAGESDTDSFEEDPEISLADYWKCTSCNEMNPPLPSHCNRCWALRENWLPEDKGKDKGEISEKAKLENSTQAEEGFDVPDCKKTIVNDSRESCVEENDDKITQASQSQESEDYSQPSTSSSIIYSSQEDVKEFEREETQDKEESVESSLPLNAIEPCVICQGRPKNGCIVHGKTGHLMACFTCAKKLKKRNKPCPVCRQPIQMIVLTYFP

IC50 [nM] | Compound
2860 | CC(C)(C)C[C@@H]1N[C@@H](CO)[C@H](c2cccc(Cl)c2)[C@@]1(C#N)c1ccc(Cl)cc1 (racemic) [Example 1, rac(2S,3R,4R,5R)-4-(3-chloro-phenyl)-3-(4-chloro-phenyl)-2-(2,2-dimethyl-propyl)-5-hydroxymethyl-pyrrolidine-3-carbonitrile]
740 | CC(C)(C)C[C@@H]1N(CC[C@@H](O)[C@H](O)[C@H](O)CO)[C@@H](CO)[C@H](c2cccc(Cl)c2)[C@@]1(C#N)c1ccc(Cl)cc1 (racemic) [Example 2, rac(2S,3R,4R,5R)-4-(3-chloro-phenyl)-3-(4-chloro-phenyl)-2-(2,2-dimethyl-propyl)-5-hydroxymethyl-1-((3R,4S,5R)-3,4,5,6-tetrahydroxy-hexyl)-pyrrolidine-3-carbonitrile]
971 | CC(C)(C)C[C@@H]1N[C@@H](CO)[C@H](c2cccc(Cl)c2F)[C@@]1(C#N)c1ccc(Cl)cc1F (racemic) [Example 3, rac(2S,3R,4S,5R)-4-(3-chloro-2-fluoro-phenyl)-3-(4-chloro-2-fluoro-phenyl)-2-(2,2-dimethyl-propyl)-5-hydroxymethyl-pyrrolidine-3-carbonitrile]
164 | CC(C)(C)C[C@@H]1N(CC[C@@H](O)[C@H](O)[C@H](O)CO)[C@@H](CO)[C@H](c2cccc(Cl)c2F)[C@@]1(C#N)c1ccc(Cl)cc1F (racemic) [Example 4, rac(2S,3R,4S,5R)-4-(3-chloro-2-fluoro-phenyl)-3-(4-chloro-2-fluoro-phenyl)-2-(2,2-dimethyl-propyl)-5-hydroxymethyl-1-((3R,4S,5R)-3,4,5,6-tetrahydroxy-hexyl)-pyrrolidine-3-carbonitrile]
212 | CC(C)(C)C[C@@H]1N(CCCc2ccc(C(=O)O)cc2)[C@@H](CO)[C@H](c2cccc(Cl)c2F)[C@@]1(C#N)c1ccc(Cl)cc1F [Example 5, 4-{3-[(2S,3R,4S,5R)-4-(3-chloro-2-fluoro-phenyl)-3-(4-chloro-2-fluoro-phenyl)-3-cyano-2-(2,2-dimethyl-propyl)-5-hydroxymethyl-pyrrolidin-1-yl]-propyl}-benzoic acid]
4130 | CCOC(=O)c1ccc(CCCN2[C@@H](CC(C)(C)C)[C@](C#N)(c3ccc(Cl)cc3F)[C@@H](c3cccc(Cl)c3F)[C@@H]2CO)cc1 [Example 6, 4-{3-[(2S,3R,4S,5R)-4-(3-chloro-2-fluoro-phenyl)-3-(4-chloro-2-fluoro-phenyl)-3-cyano-2-(2,2-dimethyl-propyl)-5-hydroxymethyl-pyrrolidin-1-yl]-propyl}-benzoic acid ethyl ester]
182 | CC(C)(C)C[C@@H]1N[C@@H](CO)[C@H](c2cccc(Cl)c2F)[C@@]1(C#N)c1ccc(Cl)cc1F [Example 7, (2S,3R,4S,5R)-4-(3-chloro-2-fluoro-phenyl)-3-(4-chloro-2-fluoro-phenyl)-2-(2,2-dimethyl-propyl)-5-hydroxymethyl-pyrrolidine-3-carbonitrile]
2320 | CCOC(=O)C1CC1CN1[C@@H](CC(C)(C)C)[C@](C#N)(c2ccc(Cl)cc2F)[C@@H](c2cccc(Cl)c2F)[C@@H]1CO (stereo partly drawn) [Example 8, 2-[(2S,3R,4S,5R)-4-(3-chloro-2-fluoro-phenyl)-3-(4-chloro-2-fluoro-phenyl)-3-cyano-2-(2,2-dimethyl-propyl)-5-hydroxymethyl-pyrrolidin-1-ylmethyl]-cyclopropanecarboxylic acid ethyl ester]
2110 | CC(C)(C)C[C@@H]1N(Cc2ccc(OCCO)cc2)[C@@H](CO)[C@H](c2cccc(Cl)c2F)[C@@]1(C#N)c1ccc(Cl)cc1F [Example 9, (2S,3R,4S,5R)-4-(3-chloro-2-fluoro-phenyl)-3-(4-chloro-2-fluoro-phenyl)-2-(2,2-dimethyl-propyl)-1-[4-(2-hydroxy-ethoxy)-benzyl]-5-hydroxymethyl-pyrrolidine-3-carbonitrile]
87 | CC(C)(C)C[C@@H]1N(C[C@@H]2C[C@H]2C(=O)O)[C@@H](CO)[C@H](c2cccc(Cl)c2F)[C@@]1(C#N)c1ccc(Cl)cc1F [Example 10a, (1R,2R)-2-[(2S,3R,4S,5R)-4-(3-chloro-2-fluoro-phenyl)-3-(4-chloro-2-fluoro-phenyl)-3-cyano-2-(2,2-dimethyl-propyl)-5-hydroxymethyl-pyrrolidin-1-ylmethyl]-cyclopropanecarboxylic acid]
1080 | CC(C)(C)C[C@@H]1N(CC#C[Si](C)(C)C)[C@@H](CO)[C@H](c2cccc(Cl)c2F)[C@@]1(C#N)c1ccc(Cl)cc1F [Example 11, (2S,3R,4S,5R)-4-(3-Chloro-2-fluoro-phenyl)-3-(4-chloro-2-fluoro-phenyl)-2-(2,2-dimethyl-propyl)-5-hydroxymethyl-1-(3-trimethylsilanyl-prop-2-ynyl)-pyrrolidine-3-carbonitrile]
1520 | CC(C)(C)C[C@@H]1N(CCCc2ccc(C(N)=O)cc2)[C@@H](CO)[C@H](c2cccc(Cl)c2F)[C@@]1(C#N)c1ccc(Cl)cc1F [Example 12, 4-{3-[(2S,3R,4S,5R)-4-(3-chloro-2-fluoro-phenyl)-3-(4-chloro-2-fluoro-phenyl)-3-cyano-2-(2,2-dimethyl-propyl)-5-hydroxymethyl-pyrrolidin-1-yl]-propyl}-benzamide trifluoroacetate salt]
1670 | Cc1ccc(CCCN2[C@@H](CC(C)(C)C)[C@](C#N)(c3ccc(Cl)cc3F)[C@@H](c3cccc(Cl)c3F)[C@@H]2CO)o1 [Example 13, (2S,3R,4S,5R)-4-(3-chloro-2-fluoro-phenyl)-3-(4-chloro-2-fluoro-phenyl)-2-(2,2-dimethyl-propyl)-5-hydroxymethyl-1-[3-(5-methyl-furan-2-yl)-propyl]-pyrrolidine-3-carbonitrile trifluoroacetate salt]
2360 | C#CCN1[C@@H](CC(C)(C)C)[C@](C#N)(c2ccc(Cl)cc2F)[C@@H](c2cccc(Cl)c2F)[C@@H]1CO [Example 14, (2S,3R,4S,5R)-4-(3-chloro-2-fluoro-phenyl)-3-(4-chloro-2-fluoro-phenyl)-2-(2,2-dimethyl-propyl)-5-hydroxymethyl-1-prop-2-ynyl-pyrrolidine-3-carbonitrile]
887 | COC(=O)c1ccc(C#CCN2[C@@H](CC(C)(C)C)[C@](C#N)(c3ccc(Cl)cc3F)[C@@H](c3cccc(Cl)c3F)[C@@H]2CO)cc1F [Example 15, 4-{3-[(2S,3R,4S,5R)-4-(3-chloro-2-fluoro-phenyl)-3-(4-chloro-2-fluoro-phenyl)-3-cyano-2-(2,2-dimethyl-propyl)-5-hydroxymethyl-pyrrolidin-1-yl]-prop-1-ynyl}-2-fluoro-benzoic acid methyl ester]
489 | CC(C)(C)C[C@@H]1N(CCCC2CCOCC2)[C@@H](CO)[C@H](c2cccc(Cl)c2F)[C@@]1(C#N)c1ccc(Cl)cc1F [Example 16, (2S,3R,4S,5R)-4-(3-chloro-2-fluoro-phenyl)-3-(4-chloro-2-fluoro-phenyl)-2-(2,2-dimethyl-propyl)-5-hydroxymethyl-1-[3-(tetrahydro-pyran-4-yl)-propyl]-pyrrolidine-3-carbonitrile]
215 | CC(C)(C)C[C@@H]1N(CCCc2cn(C(c3ccccc3)(c3ccccc3)c3ccccc3)cn2)[C@@H](CO)[C@H](c2cccc(Cl)c2F)[C@@]1(C#N)c1ccc(Cl)cc1F [Example 17, (2S,3R,4S,5R)-4-(3-chloro-2-fluoro-phenyl)-3-(4-chloro-2-fluoro-phenyl)-2-(2,2-dimethyl-propyl)-5-hydroxymethyl-1-[3-(1-trityl-1H-imidazol-4-yl)-propyl]-pyrrolidine-3-carbonitrile]
70.8 | CC(C)(C)C[C@@H]1N(CC#Cc2ccc(C(=O)O)c(F)c2)[C@@H](CO)[C@H](c2cccc(Cl)c2F)[C@@]1(C#N)c1ccc(Cl)cc1F [Example 18, 4-{3-[(2S,3R,4S,5R)-4-(3-chloro-2-fluoro-phenyl)-3-(4-chloro-2-fluoro-phenyl)-3-cyano-2-(2,2-dimethyl-propyl)-5-hydroxymethyl-pyrrolidin-1-yl]-prop-1-ynyl}-2-fluoro-benzoic acid]
242 | (1S,2S)-2-[(2S,3R,4S,5R)-4-(3-chloro-2-fluoro-phenyl)-3-(4-chloro-2-fluoro-phenyl)-3-cyano-2-(2,2-dimethyl-propyl)-5-hydroxymethyl-pyrrolidin-1-ylmethyl]-cyclopropanecarboxylic acid [Example 10b]

Source: US20120149660A1, “NOVEL N-SUBSTITUTED 5-HYDROXYPYROLLINDES AS INHIBITORS OF MDM2-P53 INTERACTIONS” (priority 2010, published 2012)
